Target: T1, PXR (Nuclear receptor subfamily 1 group I member 2) (Homo sapiens, UniProt O75469)
T1 sequence (O75469 whole entry): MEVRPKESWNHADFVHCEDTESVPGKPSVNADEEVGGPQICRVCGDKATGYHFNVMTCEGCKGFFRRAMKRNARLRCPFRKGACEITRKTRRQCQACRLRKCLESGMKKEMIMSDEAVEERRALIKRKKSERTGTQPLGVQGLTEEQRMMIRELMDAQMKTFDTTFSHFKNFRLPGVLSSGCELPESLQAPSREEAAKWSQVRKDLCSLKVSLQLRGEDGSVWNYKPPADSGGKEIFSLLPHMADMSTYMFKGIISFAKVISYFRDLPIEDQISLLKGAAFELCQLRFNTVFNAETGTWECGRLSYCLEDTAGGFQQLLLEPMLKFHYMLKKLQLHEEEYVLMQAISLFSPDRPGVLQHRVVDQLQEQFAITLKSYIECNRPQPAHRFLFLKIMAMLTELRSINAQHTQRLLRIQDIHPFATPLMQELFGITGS
Assay: Agonist activity at His-tagged PXR-LBD/SRC-1p (unknown origin) expressed in Escherichia coli BL21(DE3) by coactivator recruitment based Alpha-screen assay relative to T0901317
Conditions: read-out: Efficacy

Structure (SMILES): C/C(=C\CC/C(C)=C/CC[C@]1(C)CCc2cc(O)cc(C)c2O1)CC/C=C(\C)C(=O)O
- Emax: 103%
